Assay results from ChEMBL document CHEMBL4130590, “Mtb PKNA/PKNB Dual Inhibition Provides Selectivity Advantages for Inhibitor Design To Minimize Host Kinase Interactions” (ACS Med Chem Lett, 2017).
pKi: −log10 of the molar value. ≈ marks a conversion by molar mass, not a printed value.

What was measured:
[1] = target: T1, Serine/threonine-protein kinase PknA (Mycobacterium tuberculosis (strain ATCC 25618 / H37Rv), UniProt P9WI83); assay: Inhibition of Mycobacterium tuberculosis PknA (M1 to A296 residues) expressed in Escherichia coli BL21 (DE3) pLysS cells using [T-33P]ATP as substrate after 120 mins in presence of GarA by liquid scintillation method
T1 sequence (P9WI83 whole entry): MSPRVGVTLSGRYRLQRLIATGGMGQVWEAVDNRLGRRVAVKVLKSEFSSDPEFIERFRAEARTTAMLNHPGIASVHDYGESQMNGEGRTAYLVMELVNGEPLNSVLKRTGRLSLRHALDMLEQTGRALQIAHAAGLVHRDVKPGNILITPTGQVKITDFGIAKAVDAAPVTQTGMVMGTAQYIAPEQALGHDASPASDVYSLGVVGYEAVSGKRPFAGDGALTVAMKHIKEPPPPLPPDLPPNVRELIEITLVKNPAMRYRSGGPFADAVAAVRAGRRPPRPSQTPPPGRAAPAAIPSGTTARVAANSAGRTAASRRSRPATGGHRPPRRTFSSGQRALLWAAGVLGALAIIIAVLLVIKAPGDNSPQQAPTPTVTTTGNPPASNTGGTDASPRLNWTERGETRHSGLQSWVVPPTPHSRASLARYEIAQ

[2] = target: T2, Serine/threonine-protein kinase PknB (Mycobacterium tuberculosis, UniProt P9WI81); assay: Inhibition of Mycobacterium tuberculosis PknB (M1 to G279 residues) expressed in Escherichia coli BL21 (DE3) cells using [T-33P]ATP as substrate after 50 mins in presence of GarA by liquid scintillation method
T2 sequence (P9WI81 whole entry): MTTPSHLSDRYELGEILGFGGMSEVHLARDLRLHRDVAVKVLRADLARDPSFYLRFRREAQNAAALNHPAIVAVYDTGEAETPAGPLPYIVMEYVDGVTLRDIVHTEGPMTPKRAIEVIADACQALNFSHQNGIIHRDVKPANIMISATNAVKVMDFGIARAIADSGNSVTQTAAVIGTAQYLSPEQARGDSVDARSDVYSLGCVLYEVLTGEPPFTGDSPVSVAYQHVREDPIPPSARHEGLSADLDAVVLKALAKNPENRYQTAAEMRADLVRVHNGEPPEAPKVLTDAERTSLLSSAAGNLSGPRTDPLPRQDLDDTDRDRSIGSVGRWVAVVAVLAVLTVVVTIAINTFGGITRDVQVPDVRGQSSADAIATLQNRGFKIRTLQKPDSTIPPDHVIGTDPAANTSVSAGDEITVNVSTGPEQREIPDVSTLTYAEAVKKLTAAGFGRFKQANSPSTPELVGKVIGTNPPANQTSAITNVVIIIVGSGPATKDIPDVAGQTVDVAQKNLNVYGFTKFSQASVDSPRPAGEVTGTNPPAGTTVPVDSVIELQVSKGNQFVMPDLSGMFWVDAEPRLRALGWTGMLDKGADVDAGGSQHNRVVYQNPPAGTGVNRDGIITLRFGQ

[3] = tested on: Mycobacterium tuberculosis; assay: Antibacterial activity against Mycobacterium tuberculosis H37Ra after […] by resazurin reduction assay; type: functional
[4] = target: CDK2/Cyclin A2 (Homo sapiens, UniProt P24941); assay: Inhibition of recombinant CDK2/cyclin A (unknown origin) using MAHHRSPRKRAKKK as substrate by pyruvate kinase-lactate dehydrogenase coupled assay; type: protein-complex assay
[5] = Selectivity ratio of Ki for recombinant CDK2/cyclin A (unknown origin) to Ki for Mycobacterium tuberculosis PknB (M1 to G279 residues)
[6] = target: Glycogen synthase kinase-3 beta (Homo sapiens, UniProt P49841); assay: Inhibition of recombinant GSK3beta (unknown origin) using HSSPHQ(Sp)EDEEE as substrate by pyruvate kinase-lactate dehydrogenase coupled assay
[7] = target: Proto-oncogene tyrosine-protein kinase Src (Homo sapiens, UniProt P12931); assay: Inhibition of recombinant SRC (unknown origin) using polyE4Y as substrate by pyruvate kinase-lactate dehydrogenase coupled assay
Proto-oncogene tyrosine-protein kinase Src, sequence (P12931 2-536 limits assumed): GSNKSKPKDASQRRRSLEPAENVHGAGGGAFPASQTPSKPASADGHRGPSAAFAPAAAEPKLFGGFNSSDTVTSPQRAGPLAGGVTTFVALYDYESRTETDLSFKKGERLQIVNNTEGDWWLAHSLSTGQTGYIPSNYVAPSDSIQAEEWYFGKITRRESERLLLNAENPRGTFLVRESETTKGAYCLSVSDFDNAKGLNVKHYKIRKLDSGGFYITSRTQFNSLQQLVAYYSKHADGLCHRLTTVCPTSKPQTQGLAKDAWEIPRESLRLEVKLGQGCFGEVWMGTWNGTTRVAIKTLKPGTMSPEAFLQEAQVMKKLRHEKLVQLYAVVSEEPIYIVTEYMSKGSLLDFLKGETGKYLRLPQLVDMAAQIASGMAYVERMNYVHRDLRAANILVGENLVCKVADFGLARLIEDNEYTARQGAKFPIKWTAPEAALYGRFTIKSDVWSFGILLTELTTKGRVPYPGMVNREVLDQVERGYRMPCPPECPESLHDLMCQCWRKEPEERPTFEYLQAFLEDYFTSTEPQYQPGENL

Glycogen synthase kinase-3 beta, sequence (P49841 whole entry): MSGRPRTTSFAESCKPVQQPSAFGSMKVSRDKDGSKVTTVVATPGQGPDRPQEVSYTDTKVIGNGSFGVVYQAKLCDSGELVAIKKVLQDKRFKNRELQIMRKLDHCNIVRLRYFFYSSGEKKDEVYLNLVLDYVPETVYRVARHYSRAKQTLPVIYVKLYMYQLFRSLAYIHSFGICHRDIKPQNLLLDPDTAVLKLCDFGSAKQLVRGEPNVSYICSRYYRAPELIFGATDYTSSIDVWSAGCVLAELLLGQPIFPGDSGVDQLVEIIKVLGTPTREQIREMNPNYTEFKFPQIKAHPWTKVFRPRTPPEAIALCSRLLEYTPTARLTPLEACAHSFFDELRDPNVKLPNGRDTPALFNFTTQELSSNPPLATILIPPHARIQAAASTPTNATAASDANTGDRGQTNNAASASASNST

`NS(=O)(=O)c1ccc(-c2ncc(Cl)c(Nc3cc(C4CC4)[nH]n3)n2)cc1` showed a pKi [1] of 5.54, a pKi [2] of 7.89 and an MIC90 [3] of over 100 µM.
`Cc1cnc(-c2ccc(S(N)(=O)=O)s2)nc1Nc1cc(C2CC2)n(C)n1` gave a pKi [1] of under 5.40, a pKi [2] of under 5.40 and an MIC90 [3] of over 100 µM.
With `NS(=O)(=O)c1ccc(-c2ncc(Cl)c(Nc3cc(C4CC4)[nH]n3)n2)s1` the pKi [1] was 8.05, the pKi [2] was over 8.89 and the MIC90 [3] was 6.25 µM (≈ 2.48 µg/mL). It also gave a pKi [4] of 7.77 and a Ratio Ki [5] of over 13.
In the case of `O=C(c1ccccc1)N1CCN(c2nc(Nc3cc(C4CC4)[nH]n3)c3cc(Cl)ccc3n2)CC1`, the pKi [2] was 6.51.
With `NS(=O)(=O)c1cccc(-c2ncc(Cl)c(Nc3cc(C4CC4)[nH]n3)n2)c1` the pKi [1] was over 8.10, the pKi [2] was 7.77 and the MIC90 [3] was 8.3 µM (≈ 3.24 µg/mL).
Work on `Clc1ccc2nc(N3CCCNCC3)nc(Nc3cc(C4CC4)[nH]n3)c2c1` yielded a pKi [2] of 6.02.
Work on `NC(=O)c1cccc(-c2nc(Nc3cc(C4CC4)[nH]n3)c3cc(Cl)ccc3n2)c1` yielded a pKi [1] of under 5.40 and a pKi [2] of 7.82.
For `NS(=O)(=O)c1ccc(-c2nccc(Nc3cc(C4CC4)[nH]n3)n2)s1`, the pKi [1] was 7.74, the pKi [2] was 8.40 and the MIC90 [3] was 4.2 µM (≈ 1.52 µg/mL). The pKi [4] was 8.15 and the Ratio Ki [5] was 2.
For `N#Cc1cccc(-c2nc(Nc3cc(C4CC4)[nH]n3)c3ccccc3n2)c1`, the pKi [2] was 7.40, the pKi [6] was 8.05 and the pKi [4] was 7.96. The pKi [7] was 7.66.
Compound `NS(=O)(=O)c1ccc(-c2ncc(F)c(Nc3cc(C4CC4)[nH]n3)n2)s1` has a pKi [1] of 7.92, a pKi [2] of over 9.00 and an MIC90 [3] of 3.1 µM (≈ 1.18 µg/mL).
Compound `Fc1ccc2nc(N3CCCCCC3)nc(Nc3cc(C4CC4)[nH]n3)c2c1` has a pKi [1] of under 4.48 and a pKi [2] of 7.09.
Work on `CC(C)N1CCN(c2nc(Nc3cc(C4CC4)[nH]n3)c3cc(Cl)ccc3n2)CC1` yielded a pKi [2] of 5.85.
Work on `Clc1ccc2nc(N3CCCCCC3)nc(Nc3cc(C4CC4)[nH]n3)c2c1` yielded a pKi [1] of under 4.48, a pKi [2] of 6.82 and an MIC90 [3] of 33 µM (≈ 12.6 µg/mL).
With `Cc1ccc2nc(N3CCCCCC3)nc(Nc3cc(C4CC4)[nH]n3)c2c1` the pKi [1] was under 4.48 and the pKi [2] was 7.01.
Compound `Clc1ccc2nc(-c3ccccc3)nc(Nc3cc(C4CC4)[nH]n3)c2c1` has a pKi [1] of under 5.40 and a pKi [2] of 7.16 to 7.22.
Compound `Clc1ccc2nc(NC3CCC3)nc(Nc3cc(C4CC4)[nH]n3)c2c1` has a pKi [2] of 7.14.
Work on `NC(=O)Cc1ccc(-c2nc(Nc3cc(C4CC4)[nH]n3)c3cc(Cl)ccc3n2)cc1` yielded a pKi [1] of 5.74 and a pKi [2] of 7.64.
Compound `NS(=O)(=O)c1ccc(-c2nc(Nc3cc(C4CC4)[nH]n3)c3cc(Cl)ccc3n2)cc1` has a pKi [1] of 7.66 and a pKi [2] of 7.62.
In the case of `NS(=O)(=O)c1cccc(-c2nc(Nc3cc(C4CC4)[nH]n3)c3cc(Cl)ccc3n2)c1`, the pKi [1] was over 8.10 and the pKi [2] was 8.22.
`N#Cc1ccc(-c2nc(Nc3cc(C4CC4)[nH]n3)c3ccccc3n2)cc1` gave a pKi [2] of 7.34, a pKi [6] of 7.15 and a pKi [4] of 6.85. For the same compound, the pKi [7] was 7.74.
Compound `Clc1ccc2nc(N3CCNCC3)nc(Nc3cc(C4CC4)[nH]n3)c2c1` has a pKi [2] of 6.00.
`N#Cc1cccc(-c2nc(Nc3cc(C4CC4)[nH]n3)c3cc(Cl)ccc3n2)c1` showed a pKi [1] of under 5.40, a pKi [2] of 7.30 and a pKi [6] of under 5.40. The pKi [4] was 6.12 and the pKi [7] was 6.70.
For `O=C1CCN(c2nc(Nc3cc(C4CC4)[nH]n3)c3cc(Cl)ccc3n2)CCN1`, the pKi [2] was 6.72.
With `OCc1cccc(-c2nc(Nc3cc(C4CC4)[nH]n3)c3cc(Cl)ccc3n2)c1` the pKi [1] was 5.64 and the pKi [2] was 7.64.
Compound `CC(=O)N1CCCN(c2nc(Nc3cc(C4CC4)[nH]n3)c3cc(Cl)ccc3n2)CC1` has a pKi [2] of 6.82.
`CN1CCN(c2nc(Nc3cc(C4CC4)[nH]n3)c3cc(Cl)ccc3n2)CCC1=O` showed a pKi [2] of 6.51.
For `COc1ccc2nc(N3CCCCCC3)nc(Nc3cc(C4CC4)[nH]n3)c2c1`, the pKi [1] was under 4.48 and the pKi [2] was 7.09.
Compound `N#CCc1cccc(-c2nc(Nc3cc(C4CC4)[nH]n3)c3cc(Cl)ccc3n2)c1` has a pKi [2] of 7.42.
With `Cc1cnc(-c2ccc(S(N)(=O)=O)s2)nc1Nc1cc(C2CC2)[nH]n1` the pKi [1] was 7.74, the pKi [2] was 8.40 and the MIC90 [3] was 4.7 µM (≈ 1.77 µg/mL).
Compound `Clc1ccc2nc(N3CCCOCC3)nc(Nc3cc(C4CC4)[nH]n3)c2c1` has a pKi [2] of 6.82.
`N#CCc1ccc(-c2nc(Nc3cc(C4CC4)[nH]n3)c3cc(Cl)ccc3n2)cc1` showed a pKi [1] of under 5.40 and a pKi [2] of 8.30.
Work on `N#Cc1ccc(-c2nc(Nc3cc(C4CC4)[nH]n3)c3cc(Cl)ccc3n2)cc1` yielded a pKi [1] of under 5.40, a pKi [2] of 7.06 and a pKi [6] of 6.72. For the same compound, the pKi [4] was 6.77 and the pKi [7] was 6.15.
`NC(=O)c1ccc(-c2nc(Nc3cc(C4CC4)[nH]n3)c3cc(Cl)ccc3n2)cc1` showed a pKi [1] of under 5.40 and a pKi [2] of 7.54.
For `NS(=O)(=O)c1ccc(-c2nc(Nc3cc(C4CC4)[nH]n3)c3cc(Cl)ccc3n2)s1`, the pKi [1] was over 8.10 and the pKi [2] was over 9.00.
Work on `COC(=O)N1CCCN(c2nc(Nc3cc(C4CC4)[nH]n3)c3cc(Cl)ccc3n2)CC1` yielded a pKi [2] of 6.64.
